This is an account of results in patent US8501755B2, “Tetrahydropyridothienopyrimidine compounds and methods of use thereof” (Bayer Intellectual Property GmbH, priority 2006, dated 2013).

As a reminder, the IC50 is the point on the concentration scale where inhibition reaches its midpoint.

Holding throughout (format): cell-based
Test [1] relates to N87. As to the kind of experiment: In vitro tumor cell proliferation assay (Cell Titer-Glo) in N87 cells. To be noted: N87 human gastric carcinoma overexpressing HER2 and HER1; 72 hours exposure; read-out: IC50, activities in N87 cell lines. An excerpt: (§1) The tumor cell proliferation assay used to test the compounds of the present invention involves a readout called Cell Titer-Glow® Luminescent Cell Viability Assay developed by Promega® (Cunningham, BA “A Growing Issue: Cell Proliferation Assays, Modern kits ease quantification of cell growth” The Scientist 2001, 15(13), 26, and Crouch, S P et al., “The use of ATP bioluminescence as a measure of cell proliferation and cytotoxicity” Journal of Immunological Methods 1993, 160, 81-88), that measures inhibition of cell proliferation. Generation of a luminescent signal corresponds to the amount of ATP present, which is directly proportional to the number of metabolically active (proliferating) cells. A431 cells [human epidermoid carcinoma, ATCC # HTB-20, overexpressing HER1 (EGFR, ErbB1)] and N87 [human gastric carcinoma, ATCC # CRL-1555, overexpressing HER2 (ErbB2) and HER1 (EGFR, ErbB1)] were plated at a density of 2.5×10^3 cells/well in 96 well black-clear bottom tissue culture plates in RPMI media with 10% Fetal Bovine Serum and incubated at 37° C. Twenty-four hours later, test compounds are added at a final concentration range from as high 100 μm to as low […] depend on the activities of the tested compounds in serial dilutions at a final DMSO concentration of 0.1%. Cells were incubated for 72 hours at 37° C. in complete growth media after addition of the test compound. After 72 hours of drug exposure, the plates were equilibrated to room temperature for approximately 30 min. Then, using a Promega Cell Titer Glo Luminescent® assay kit, lysis buffer containing 100 microliters of the enzyme luciferase and its substrate, luciferin mixture, was added to each well. The plates were mixed for 2 min on orbital shaker to ensure cell lysis and incubated for 10 min at room temperature to stabilize luminescence signal. The samples were read on VICTOR2 using Luminescence protocol, and analyzed with Analyze5 software to generate IC50 values.
In general terms: ATP-based viability assays read luminescence as a measure of living cells.

The subject of test [2] is A431 cells. As to the kind of experiment: In vitro tumor cell proliferation assay (Cell Titer-Glo) in A431 cells. To be noted: Homo sapiens, A-431, 72 h, A431 human epidermoid carcinoma overexpressing HER1; 72 hours exposure; read-out: IC50, activities in A431 cell lines.
Text: as §1

Test [3] has as its system H1975 cells. Briefly: In vitro tumor cell proliferation assay (Cell Titer-Glo) in H1975 cells. To be noted: NCI-H1975; H1975 human NSCLC expressing mutant HER1 (L858R,T790M); 72 hours exposure; read-out: IC50, activities in H 1975 cell lines. An excerpt: The tumor cell proliferation assay used to test the compounds of the present invention involves a readout called Cell Titer-Glow® Luminescent Cell Viability Assay developed by Promega® (Cunningham, BA “A Growing Issue: Cell Proliferation Assays, Modern kits ease quantification of cell growth” The Scientist 2001, 15(13), 26, and Crouch, S P et al., “The use of ATP bioluminescence as a measure of cell proliferation and cytotoxicity” Journal of Immunological Methods 1993, 160, 81-88), that measures inhibition of cell proliferation. Generation of a luminescent signal corresponds to the amount of ATP present, which is directly proportional to the number of metabolically active (proliferating) cells.
H1975 cells [human non small cell lung carcinoma, ATCC # CRL-5908, expressing mutant HER1 [(EGFR, ErbB1)(L858R,T790M] were plated at a density of 3×10^3 cells/well in 96 well black-clear bottom tissue culture plates in RPMI media with 10% Fetal Bovine Serum and incubated at 37° C. Twenty-four hours later, test compounds are added at a final concentration range from as high 10 uM to as low 64 pM depending on the activities of the tested compounds in serial dilutions at a final DMSO concentration of 0.1%. Cells were incubated for 72 hours at 37° C. in complete growth media after addition of the test compound. After 72 hours of drug exposure, the plates were equilibrated to room temperature for approximately 30 min. Then, using a Promega Cell Titer Glo Luminescent® assay kit, lysis buffer containing 100 microliters of the enzyme luciferase and its substrate, luciferin mixture, was added to each well. The plates were mixed for 2 min on orbital shaker to ensure cell lysis and incubated for 10 min at room temperature to stabilize luminescence signal. The samples were read on VICTOR2 using Luminescence protocol, and analyzed with Analyze5 software to generate IC50 values.

`CN(C)C/C=C/C(=O)N1CCc2c(sc3ncnc(Nc4ccc5c(cnn5Cc5ccccc5)c4)c23)C1` [Example 97, N-(1-benzyl-1H-indazol-5-yl)-7-[(2E)-4-(dimethylamino)but-2-enoyl]-5,6,7,8-tetrahydropyrido [4′,3′:4,5]thieno[2,3-d]pyrimidin-4-amine]: the values for the IC50 in test [1], in test [2] and in test [3] were < 200 nM, 200 to 1000 nM and 200 to 1000 nM, respectively.

In the case of `O=C(/C=C/CN1CCCCC1)N1CCc2c(sc3ncnc(Nc4ccc5c(ccn5Cc5cccc(F)c5)c4)c23)C1` [Example 106, N-[1-(3-fluorobenzyl)-1H-indol-5-yl)-7-[(2E)-4-piperidin-1-ylbut-2-enoyl]-5,6,7,8-tetrahydropyrido [4′,3′:4,5]thieno[2,3-d]pyrimidin-4-amine], the IC50 in test [1] is < 200 nM; in test [2], < 200 nM; in test [3], 200 to 1000 nM.

With `CN(C/C=C/C(=O)N1CCc2c(sc3ncnc(Nc4ccc5c(cnn5Cc5cccc(F)c5)c4)c23)C1)C(C)(C)C` [Example 124, 7-{(2E)-4-[tert-butyl(methyl)amino]but-2-enoyl}-N-[1-(3-fluorobenzyl)-1H-indazol-5-yl]-5,6,7,8-tetrahydropyrido [4′,3′:4,5]thieno[2,3-d]pyrimidin-4-amine], the IC50 in test [1], in test [2] and in test [3] was < 200 nM throughout.

On to `CCN(CC)C/C=C/C(=O)N1CCc2c(sc3ncnc(Nc4ccc(OCc5cccc(F)c5)c(Cl)c4)c23)C1` [Example 13, N-{3-chloro-4-[(3-fluorobenzyl)oxy]phenyl}-7-[(2E)-4-(diethylamino)but-2-enoyl]-5,6,7,8-tetrahydropyrido[4′,3′:4,5]thieno[2,3-d]pyrimidin-4-amine], for which the IC50 in test [1] was < 200 nM; in test [2], < 200 nM; in test [3], 1000 to 10000 nM.

Consider `C#Cc1cccc(Nc2ncnc3sc4c(c23)CCN(C(=O)C2=CCCN(C)C2)C4)c1` [Example 31, N-(3-ethynylphenyl)-7-[(1-methyl-1,2,5,6-tetrahydropyridin-3-yl)carbonyl]-5,6,7,8-tetrahydropyrido [4′,3′:4,5]thieno[2,3-d]pyrimidin-4-amine], for which the IC50 in test [1] lay within 200 to 5000 nM; in test [2], 1000 to 10000 nM; in test [3], 1000 to 10000 nM.

Turning to `Cc1cccc(COc2ccc(Nc3ncnc4sc5c(c34)CCN(C(=O)/C=C/CN(C)C(C)C)C5)cc2Cl)n1` [Example 77, N-{3-chloro-4-[(6-methylpyridin-2-yl)methoxy]phenyl}-7-{(2E)-4-[isopropyl(methyl)amino]but-2-enoyl}-5,6,7,8-tetrahydropyrido [4′,3′:4,5]thieno[2,3-d]pyrimidin-4-amine], the concentration for half-maximal inhibition (IC50) in test [1] was < 200 nM; in test [2], 1000 to 10000 nM; in test [3] it was 200 to 1000 nM.

Consider `CN(C)C/C=C/C(=O)N1CCc2c(sc3ncnc(Nc4ccc5c(ccn5Cc5cccc(F)c5)c4)c23)C1` [Example 98, 7-[(2E)-4-(dimethylamino)but-2-enoyl]-N-[1-(3-fluorobenzyl)-1H-indol-5-yl]-5,6,7,8-tetrahydropyrido [4′,3′:4,5]thieno[2,3-d]pyrimidin-4-amine], for which the IC50 was < 200 nM in test [1], 200 to 1000 nM in test [2] and < 200 nM in test [3].

Take `C=C(CN1CCOCC1)C(=O)N1CCc2c(sc3ncnc(Nc4ccc(OCc5ccccn5)c(Cl)c4)c23)C1` [Example 144]: the IC50 in test [1] was < 200 nM; in test [2] it was 1000 to 10000 nM; in test [3], 1000 to 10000 nM.

As to `O=C(/C=C/CN1CCCC(CO)C1)N1CCc2c(sc3ncnc(Nc4ccc(OCc5ccccn5)c(Cl)c4)c23)C1` (stereo not drawn) [Example 47, (1-{(2E)-4-[4-{[3-chloro-4-(pyridin-2-ylmethoxy)phenyl]amino}-5,8-dihydropyrido [4′,3′:4,5]thieno[2,3-d]pyrimidin-7(6H)-yl]-4-oxobut-2-en-1-yl}piperidin-3-yl)methanol], the IC50 in test [1] was < 200 nM; in test [2], 200 to 1000 nM; in test [3], 200 to 1000 nM.

Consider `CN(C)C/C=C/C(=O)N1CCc2c(sc3ncnc(Nc4ccc(Br)c(Cl)c4)c23)C1` [Example 172, N-(4-bromo-3-chlorophenyl)-7-[(2E)-4-(dimethylamino)but-2-enoyl]-5,6,7,8-tetrahydropyrido [4′,3′:4,5]thieno[2,3-d]pyrimidin-4-amine], for which the IC50 was < 200 nM in test [1], 200 to 1000 nM in test [2] and 200 to 1000 nM in test [3].

Consider `CC1CN(C/C=C/C(=O)N2CCc3c(sc4ncnc(Nc5ccc(OCc6ccccn6)c(Cl)c5)c34)C2)CC(C)O1` (stereo not drawn) [Example 53, N-[3-chloro-4-(pyridin-2-ylmethoxy)phenyl]-7-((2E)-4-(2,6-dimethylmorpholin-4-yl)but-2-enoyl]-5,6,7,8-tetrahydropyrido [4′,3′:4,5]thieno[2,3-d]pyrimidin-4-amine], for which the IC50 in test [1] is < 200 nM; in test [2], 1000 to 10000 nM; in test [3], 1000 to 10000 nM.

On to `C=C(CN1CCOCC1)C(=O)N1CCc2c(sc3ncnc(Nc4ccc(F)c(Cl)c4)c23)C1` [Example 145, N-(3-chloro-4-fluorophenyl)-7-[2-(morpholin-4-ylmethyl)acryloyl]-5,6,7,8-tetrahydropyrido [4′,3′:4,5]thieno[2,3-d]pyrimidin-4-amine], for which the IC50 in test [1] was 200 to 5000 nM; in test [2] it was 1000 to 10000 nM; in test [3], 1000 to 10000 nM.

Consider `CCN(C/C=C/C(=O)N1CCc2c(sc3ncnc(Nc4ccc(F)c(Cl)c4)c23)C1)C(C)C` [Example 37, N-(3-chloro-4-fluorophenyl)-7-{(2E)-4-[ethyl(isopropyl)amino]but-2-enoyl}-5,6,7,8-tetrahydropyrido [4′3′:4,5]thieno[2,3-d]pyrimidin-4-amine], for which the IC50 is < 200 nM in test [1], 1000 to 10000 nM in test [2] and 1000 to 10000 nM in test [3].

On to `CCN(C)C/C=C/C(=O)N1CCc2c(sc3ncnc(Nc4ccc(OCc5cccnc5)c(Cl)c4)c23)C1` [Example 90, N-[3-chloro-4-(pyridin-3-ylmethoxy)phenyl]-7-{(2E)-4-[ethyl(methyl)amino]but-2-enoyl}-5,6,7,8-tetrahydropyrido [4′,3′:4,5]thieno[2,3-d]pyrimidin-4-amine], for which the half-maximal inhibitory concentration (IC50) is < 200 nM in test [1], 1000 to 10000 nM in test [2] and 200 to 1000 nM in test [3].

Regarding `C#Cc1cccc(Nc2ncnc3sc4c(c23)CCN(C(=O)/C=C/CN(C)C)C4)c1` [Example 17, 7-[(2E)-4-(dimethylamino)but-2-enoyl]-N-(3-ethynylphenyl)-5,6,7,8-tetrahydropyrido[4′,3′:4,5]thieno[2,3-d]pyrimidin-4-amine], the IC50 in test [1] is < 200 nM; in test [2] it was < 200 nM; in test [3], 200 to 1000 nM.

Consider `CN(C)C/C=C/C(=O)N1CCc2c(sc3ncnc(Nc4ccc(OCc5cccc(F)c5)c(Cl)c4)c23)C1` [Example 11, N-{3-chloro-4-[(3-fluorobenzyl)oxy]phenyl}-7-[(2E)-4-(dimethylamino)but-2-enoyl]-5,6,7,8-tetrahydropyrido[4′,3′:4,5]thieno[2,3-d]pyrimidin-4-amine], for which the IC50 was < 200 nM in test [1], < 200 nM in test [2] and 1000 to 10000 nM in test [3].
